Experimental findings from patent US11247965B2 (VenatoRx Pharmaceuticals, Inc., priority 2017, dated 2022) are described below.

The test system of series [1] is HBV replication in HepAD38 cells. Put plainly: Anti-HBV activity in HepAD38 cells, extracellular HBV DNA by QPCR. In kind it is cell-based, HBV (genotype D, serotype ayw). Conditions: Hepatitis B virus, HePAD38, 168 h, read-out: Anti-HBV EC50, HepAD38 cells, extracellular HBV DNA by QPCR, 7 days of incubation. The method, boiled down:
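Seven-day compound exposure (30 μM down to 10 nM, half-log steps) after tetracycline withdrawal induced HBV replication in HepAD38 cells. Extracellular viral DNA measured by QPCR (copies/mL via standard curve), normalised to DMSO wells; EC50 from 4-parameter non-linear regression.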

Series [2] in a line: In vitro cytotoxicity, MTT cell viability assay in HepG2 cells. It counts as cell-based. Conditions: human, Cytotoxicity CC50. The essentials: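 Using MTT conversion as the viability measure, HepG2 cells were incubated with compounds for 7 days (30 μM to 1.0 nM). Absorbance at 492 nm was normalized to vehicle and fitted to give CC50.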
(Tetrazolium dyes change colour on reduction, which living cells bring about.)

SMILES strings stand for the structures. pEC50: −log10 of the molar value.

Broadly, the pEC50 is the negative decadic logarithm of the EC50, by convention in mol/L. One may read the CC50 as the concentration giving 50% cytotoxicity. A low value points to greater toxicity to the cells. For `O=C(Nc1ccnc(Cl)c1)c1ccc(F)c(C(F)(F)C(=O)N2[C@@H]3CC[C@H]2C[C@@H](O)C3)c1` [Example 196, N-(2-chloropyridin-4-yl)-3-(1,1-difluoro-2-((1R,3r,5S)-3-hydroxy-8-azabicyclo[3.2.1]octan-8-yl)-2-oxoethyl)-4-fluorobenzamide], in series [1], the negative-log EC50 (pEC50) was greater than 5.30. In series [2], this compound registered a CC50 at 7 days of less than 5 µM.
The like results for `CCN(CCCO)C(=O)C(F)(F)c1cc(C(=O)Nc2ccc(F)c(F)c2)ccc1F` [Example 46, N-(3,4-difluorophenyl)-3-(2-(ethyl(3-hydroxypropyl)amino)-1,1-difluoro-2-oxoethyl)-4-fluorobenzamide] were, in that order, 4.52 to 5.30 and greater than 30 µM.
The like results for `O=C(Nc1ccc(F)c(F)c1)c1ccc(F)c(C(F)(F)C(=O)NCC2COCCO2)c1` (stereo not shown) [Example 6, 3-(2-(((1,4-dioxan-2-yl)methyl)amino)-1,1-difluoro-2-oxoethyl)-N-(3,4-difluorophenyl)-4-fluorobenzamide] were, in that order, 4.52 to 5.30 and 5 to 30 µM.
The like results for `Cc1cc(NC(=O)c2ccn(C)c2C(F)(F)C(=O)NC(C)C(F)(F)F)ccc1F` (stereo not shown) [Example 112, 2-(1,1-difluoro-2-oxo-2-((1,1,1-trifluoropropan-2-yl)amino)ethyl)-N-(4-fluoro-3-methylphenyl)-1-methyl-1H-pyrrole-3-carboxamide] were, in that order, less than 4.52 and greater than 30 µM.
With `Cc1cc(NC(=O)c2ccn(C)c2C(F)(F)C(=O)N[C@@H]2CCCC[C@H]2O)ccc1F` [Example 128, 2-(1,1-difluoro-2-(((1R,2R)-2-hydroxycyclohexyl)amino)-2-oxoethyl)-N-(4-fluoro-3-methylphenyl)-1-methyl-1H-pyrrole-3-carboxamide], the pEC50 in series [1] was 4.52 to 5.30. Further, in series [2], the CC50 at 7 days was greater than 30 µM.
`Cc1cc(NC(=O)c2ccc(F)c(C(F)(F)C(=O)N3CC4CNCC4C3)c2)ccc1F` (stereo not shown) [Example 283, 3-(1,1-difluoro-2-(hexahydropyrrolo[3,4-c]pyrrol-2(1H)-yl)-2-oxoethyl)-4-fluoro-N-(4-fluoro-3-methylphenyl)benzamide]: the pEC50 in series [1] was greater than 5.30. This compound gave a CC50 at 7 days in series [2] of 5 to 30 µM.
The matching figures for `CC(C)(CO)NC(=O)C(F)c1cc(C(=O)Nc2ccc(F)c(F)c2)ccc1F` (stereo not shown) [Example 31, N-(3,4-difluorophenyl)-4-fluoro-3-(1-fluoro-2-((1-hydroxy-2-methylpropan-2-yl)amino)-2-oxoethyl)benzamide]: 4.52 to 5.30 and 5 to 30 µM.
The matching figures for `O=C(Nc1ccc(F)c(Cl)c1)c1ccc(F)c(C(F)(F)C(=O)N2CCC(O)C(F)(F)C2)c1` (stereo not shown) [Example 169, N-(3-chloro-4-fluorophenyl)-3-(2-(3,3-difluoro-4-hydroxypiperidin-1-yl)-1,1-difluoro-2-oxoethyl)-4-fluorobenzamide]: greater than 5.30 and 5 to 30 µM.
The matching figures for `CC(=O)N[C@H]1CCN(C(=O)C(F)(F)c2cc(C(=O)Nc3ccc(F)c(C)c3)ccc2F)CC1(C)C` [Example 327, (S)-3-(2-(4-acetamido-3,3-dimethylpiperidin-1-yl)-1,1-difluoro-2-oxoethyl)-4-fluoro-N-(4-fluoro-3-methylphenyl)benzamide]: greater than 5.30 and greater than 30 µM.
With `Cc1cc(NC(=O)c2ccc(F)c(C(F)(F)C(=O)N3[C@@H]4CCC[C@H]3[C@H](O)C4)c2)ccc1F` [Example 215, 3-(1,1-difluoro-2-((1R,5S,6R)-6-hydroxy-8-azabicyclo[3.2.1]octan-8-yl)-2-oxoethyl)-4-fluoro-N-(4-fluoro-3-methylphenyl)benzamide], the pEC50 in series [1] was greater than 5.30. For the same compound, in series [2], the CC50 at 7 days lay in the range of 5 to 30 µM.
The like results for `NC(=O)c1cc(NC(=O)c2ccc(Cl)c(C(F)(F)C(=O)N3CCC(O)CC3)c2)ccc1F` [Example 60, N-(3-carbamoyl-4-fluorophenyl)-4-chloro-3-(1,1-difluoro-2-(4-hydroxypiperidin-1-yl)-2-oxoethyl)benzamide] were, in that order, 4.52 to 5.30 and greater than 30 µM.
